Reference: US8604061B2, “2-aminooxazolines as TAAR1 ligands” (Hoffmann-La Roche Inc., priority 2007, dated 2013)

The molecules below were run against TAAR1 (Mus musculus, UniProt Q923Y8) (assay: TAAR1 radioligand binding, membranes of stably transfected HEK293 cells (mouse)). Settings: not given.
Experimental: For the construction of expression plasmids the coding sequences of human, rat and mouse TAAR 1 were amplified from genomic DNA essentially as described by Lindemann et al.. The Expand High Fidelity PCR System (Roche Diagnostics) was used with 1.5 mM Mg^2+ and purified PCR products were cloned into pCR2.1-TOPO cloning vector (Invitrogen) following the instructions of the manufacturer. PCR products were subcloned into the pIRESneo2 vector (BD Clontech, Palo Alto, Calif.), and expression vectors were sequence verified before introduction in cell lines.
HEK293 cells (ATCC #CRL-1573) were cultured essentially as described Lindemann et al. (2005). For the generation of stably transfected cell lines HEK293 cells were transfected with the pIRESneo2 expression plasmids containing the TAAR coding sequences (described above) with Lipofectamine 2000 (Invitrogen) according to the instructions of the manufacturer, and 24 hrs post transfection the culture medium was supplemented with 1 mg/ml G418 (Sigma, Buchs, Switzerland). After a culture period of about 10 d clones were isolated, expanded and tested for responsiveness to trace amines (all compounds purchased from Sigma) with the cAMP Biotrak Enzyme immunoassay (EIA) System (Amersham) following the non-acetylation EIA procedure provided by the manufacturer.
Cells at confluence were rinsed with ice-cold phosphate buffered saline without Ca^2+ and Mg^2+ containing 10 mM EDTA and pelleted by centrifugation at 1000 rpm for 5 min at 4° C. The pellet was then washed twice with ice-cold phosphate buffered saline and cell pellet was frozen immediately by immersion in liquid nitrogen and stored until use at −80° C. Cell pellet was then suspended in 20 ml HEPES-NaOH (20 mM), pH 7.4 containing 10 mM EDTA, and homogenized with a Polytron (PT 3000, Kinematica) at 10,000 rpm for 10 s. The homogenate was centrifuged at 48,000×g for 30 min at 4° C. and the pellet resuspended in 20 ml HEPES-NaOH (20 mM), pH 7.4 containing 0.1 mM EDTA (buffer A), and homogenized with a Polytron at 10,000 rpm for 10 s. The homogenate was then centrifuged at 48,000×g for 30 min at 4° C. and the pellet resuspended in 20 ml buffer A, and homogenized with a Polytron at 10,000 rpm for 10 s. Protein concentration was determined by the method of Pierce (Rockford, Ill.). The homogenate was then centrifuged at 48,000×g for 10 min at 4° C., resuspended in HEPES-NaOH (20 mM), pH 7.0 including MgCl2 (10 mM) and […] homogenized with a Polytron at 10,000 rpm for 10 s.
Binding assay was performed at 4° C. in a final volume of 1 ml, and with an incubation time of 30 min. […] Non-specific binding was defined as the amount of [^3H]-rac-2-(1,2,3,4-tetrahydro-1-naphthyl)-2-imidazoline bound in the presence of the appropriate unlabelled ligand (10 μM). Competing ligands were tested in a wide range of concentrations (10 pM-30 μM). […] Each experiment was performed in duplicate. All incubations were terminated by rapid filtration through UniFilter-96 plates (Packard Instrument Company) and glass filter GF/C, pre-soaked for at least 2 h in polyethylenimine 0.3%, and using a Filtermate 96 Cell Harvester (Packard Instrument Company). The tubes and filters were then washed 3 times with 1 ml aliquots of cold buffer B. Filters were not dried and soaked in Ultima gold (45 μl/well, Packard Instrument Company) and bound radioactivity was counted by a TopCount Microplate Scintillation Counter (Packard Instrument Company).

Compound	Ki [µM]
NC1=NC(c2ccc(Cl)cc2)CO1 (racemic) [Example 5, (RS)-4-(4-Chloro-phenyl)-4,5-dihydro-oxazol-2-ylamine]	0.0021
Cc1ccc(Cl)cc1C1COC(N)=N1 (racemic) [Example 272, (RS)-4-(5-Chloro-2-methyl-phenyl)-4,5-dihydro-oxazol-2-ylamine]	0.0013
NC1=NC(c2ccc(Br)cc2C(F)(F)F)CO1 (racemic) [Example 302, (RS)-4-(4-Bromo-2-trifluoromethyl-phenyl)-4,5-dihydro-oxazol-2-ylamine]	0.0017
NC1=NC(c2ccc(-c3ccc(Cl)cc3)cc2)CO1 (racemic) [Example 31, (RS)-4-(4′-Chloro-biphenyl-4-yl)-4,5-dihydro-oxazol-2-ylamine]	0.0022
NC1=NC(c2ccc(Br)c(F)c2)CO1 (racemic) [Example 252, (RS)-4-(4-Bromo-3-fluoro-phenyl)-4,5-dihydro-oxazol-2-ylamine]	0.0008
NC1=NC(c2ccc(-c3ccccc3)cc2)CO1 (racemic) [Example 10, (RS)-4-Biphenyl-4-yl-4,5-dihydro-oxazol-2-ylamine]	0.0025
NC1=NC(c2cc(F)ccc2C(F)(F)F)CO1 (racemic) [Example 249, (RS)-4-(5-Fluoro-2-trifluoromethyl-phenyl)-4,5-dihydro-oxazol-2-ylamine]	0.0075
NC1=N[C@@H](c2ccc(F)cc2F)CO1 [37b (S), (S)-4-(2,4-Difluoro-phenyl)-4,5-dihydro-oxazol-2-ylamine]	0.0087

Same assay, conditions: mouse/rat; cell not marked 'rat'; radioligand [3H]-rac-2-(1,2,3,4-tetrahydro-1-naphthyl)-2-imidazoline, 4° C.; read-out: Ki (μM) mouse/rat

Compound	Ki [µM]
NC1=N[C@@H](CC2(c3ccccc3)CC2)CO1 [Example 342, (S)-4-(1-Phenyl-cyclopropylmethyl)-4,5-dihydro-oxazol-2-ylamine]	0.0045
NC1=N[C@@H](c2ccc(Cl)cc2)CO1 [Example 169, (S)-4-(4-Chloro-phenyl)-4,5-dihydro-oxazol-2-ylamine]	0.0014
NC1=N[C@@H](CCc2cc(Cl)cc(Cl)c2)CO1 [Example 138, (S)-4-[2-(3,5-Dichloro-phenyl)-ethyl]-4,5-dihydro-oxazol-2-ylamine]	0.0012
CC(C[C@H]1COC(N)=N1)c1cc(F)cc(F)c1 (stereo partly drawn) [Example 202, (S)-4-[2-(3,5-Difluoro-phenyl)-propyl]-4,5-dihydro-oxazol-2-ylamine]	0.0017
NC1=N[C@@H](c2ccccc2Cl)CO1 [Example 4, (S)-4-(2-Chloro-phenyl)-4,5-dihydro-oxazol-2-ylamine]	0.0012
COc1cc(CC[C@H]2COC(N)=N2)ccc1F [Example 86, (S)-4-[2-(4-Fluoro-3-methoxy-phenyl)-ethyl]-4,5-dihydro-oxazol-2-ylamine]	0.0008
Cc1ccc([C@H]2COC(N)=N2)cc1Cl [Example 374, (+)-(S)-4-(3-Chloro-4-methyl-phenyl)-4,5-dihydro-oxazol-2-ylamine]	0.0006
Cc1cc(CC[C@H]2COC(N)=N2)ccn1 [Example 220, (S)-4-[2-(2-Methyl-pyridin-4-yl)-ethyl]-4,5-dihydro-oxazol-2-ylamine]	0.0084
NC1=N[C@@H](c2cc(Cl)ccc2F)CO1 [Example 190, (+)-(S)-4-(5-Chloro-2-fluoro-phenyl)-4,5-dihydro-oxazol-2-ylamine]	0.0008
NC1=N[C@@H](CCc2cccc(Br)c2)CO1 [Example 143, (S)-4-[2-(3-Bromo-phenyl)-ethyl]-4,5-dihydro-oxazol-2-ylamine]	0.0007
NC1=N[C@@H](c2ccc(F)c(F)c2)CO1 [Example 166, (S)-4-(3,4-Difluoro-phenyl)-4,5-dihydro-oxazol-2-ylamine]	0.0047
NC1=N[C@@H](CCc2ccccc2)CO1 [Example 80 (S), (S)-4-Phenethyl-4,5-dihydro-oxazol-2-ylamine]	0.0008
NC1=N[C@@H](c2ccc(Cl)cc2C2CC2)CO1 [Example 369, (+)-(S)-4-(4-Chloro-2-cyclopropyl-phenyl)-4,5-dihydro-oxazol-2-ylamine]	0.0009
CC(C[C@H]1COC(N)=N1)c1ccccc1F (stereo partly drawn) [Example 217, (S)-4-[2-(2-Fluoro-phenyl)-propyl]-4,5-dihydro-oxazol-2-ylamine]	0.0015
CCC(C[C@H]1COC(N)=N1)c1ccc(F)c(F)c1 (stereo partly drawn) [Example 211, (S)-4-[2-(3,4-Difluoro-phenyl)-butyl]-4,5-dihydro-oxazol-2-ylamine]	0.0024
C[C@]1(CCc2ccccc2Cl)COC(N)=N1 [Example 228, (S)-4-[2-(2-Chloro-phenyl)-ethyl]-4-methyl-4,5-dihydro-oxazol-2-ylamine]	0.004
CC1(c2cc(F)c(F)c(F)c2)COC(N)=N1 (racemic) [Example 273, (RS)-4-Methyl-4-(3,4,5-trifluoro-phenyl)-4,5-dihydro-oxazol-2-ylamine]	0.0095

Compound	Ki [µM]
C[C@]1(c2ccc(C(F)(F)F)cc2F)COC(N)=N1 [Example 215, (S)-4-(2-Fluoro-4-trifluoromethyl-phenyl)-4-methyl-4,5-dihydro-oxazol-2-ylamine]	0.0024
NC1=N[C@H](c2ccc(Cl)cc2Cl)CO1 [Example 295, (−)-(R)-4-(2,4-Dichloro-phenyl)-4,5-dihydro-oxazol-2-ylamine]	0.0082
NC1=N[C@@H](CCc2ccncc2F)CO1 [Example 158, (S)-4-[2-(3-Fluoro-pyridin-4-yl)-ethyl]-4,5-dihydro-oxazol-2-ylamine]	0.0068
C[C@]1(c2ccc(Cl)c(Cl)c2)COC(N)=N1 [Example 135, (S)-4-(3,4-Dichloro-phenyl)-4-methyl-4,5-dihydro-oxazol-2-ylamine]	0.0009
NC1=N[C@@H](c2ccc(Cl)c(Cl)c2)CO1 [Example 91, (S)-4-(3,4-Dichloro-phenyl)-4,5-dihydro-oxazol-2-ylamine]	0.0006
NC1=N[C@@H](CSc2ccccc2)CO1 [Example 195, (R)-4-Phenylsulfanylmethyl-4,5-dihydro-oxazol-2-ylamine]	0.0018
C[C@]1(c2ccccc2Cl)COC(N)=N1 [Example 180, (S)-4-(2-Chloro-phenyl)-4-methyl-4,5-dihydro-oxazol-2-ylamine]	0.0088
NC1=N[C@@H](CCc2ccc(C(F)(F)F)cc2)CO1 [Example 119, (S)-4-[2-(4-Trifluoromethyl-phenyl)-ethyl]-4,5-dihydro-oxazol-2-ylamine]	0.0026
C[C@]1(c2ccc(Br)cc2)COC(N)=N1 [Example 231, (S)-4-(4-Bromo-phenyl)-4-methyl-4,5-dihydro-oxazol-2-ylamine]	0.0025
NC1=N[C@@H](CCc2ccccc2C(F)(F)F)CO1 [Example 110, (S)-4-[2-(2-Trifluoromethyl-phenyl)-ethyl]-4,5-dihydro-oxazol-2-ylamine]	0.0018
C[C@]1(CCc2cccc(Cl)c2)COC(N)=N1 [Example 246, (S)-4-[2-(3-Chloro-phenyl)-ethyl]-4-methyl-4,5-dihydro-oxazol-2-ylamine]	0.0055
NC1=N[C@@H](COc2ccccc2F)CO1 [Example 354, (S)-4-(2-Fluoro-phenoxymethyl)-4,5-dihydro-oxazol-2-ylamine]	0.0003
NC1=N[C@@H](c2ccc(Br)c(Cl)c2)CO1 [Example 330, (+)-(S)-4-(4-Bromo-3-chloro-phenyl)-4,5-dihydro-oxazol-2-ylamine]	0.0008
C[C@]1(c2cc(Cl)ccc2F)COC(N)=N1 [Example 270, (S)-4-(5-Chloro-2-fluoro-phenyl)-4-methyl-4,5-dihydro-oxazol-2-ylamine]	0.0016
NC1=N[C@@H](COc2ccc(Cl)cc2)CO1 [Example 216, (S)-4-(4-Chloro-phenoxymethyl)-4,5-dihydro-oxazol-2-ylamine]	0.002
NC1=N[C@@H](CCc2cccc(Cl)c2)CO1 [Example 232, (S)-4-[2-(3-Chloro-phenyl)-ethyl]-4,5-dihydro-oxazol-2-ylamine]	0.0006
